For test [1], the system named is HCT116, RKO, and H460a cells. The experiment in a line: Real-time RT-qPCR of p21 and p53 genes in cancer cells with wild-type p53. It is filed as cell-based. To be noted: H203 for 8 h. As to the method:
[…]. […] […]. Total RNAs were extracted using a Trizol protocol with RNeasy® Mini kit from Qiagen (TX, USA). The concentration of RNAs was measured with Nanodrop-2000c. Real-time qPCR was performed with a BaldStar TaqMan One-Step RT-qPCR Kit from Biorab (Beijing, China) on a BioRad CFX96 qPCR instrument (CA, USA). The primers and probes for qPCR were designed using Primer Express 3.0 software (Applied Biosystems, USA). […]. TaqMan probes were labeled with 5′-FAM and 3′-TAMRA. All primers and probes were synthesized by GenScript (Nanjing, China). Samples were analyzed in triplicate and normalized to the control.
A general note: In qPCR the cycle at which signal appears reflects the starting amount.

In the next test the target is T1, N-MdmX (Homo sapiens, UniProt O15151).
T1 sequence (O15151 22-110): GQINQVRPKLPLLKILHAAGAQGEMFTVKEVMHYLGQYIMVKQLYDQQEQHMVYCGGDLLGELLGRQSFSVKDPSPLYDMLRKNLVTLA
The experiment in a line: Isothermal titration calorimetry (ITC) assay.

Where no end group is shown, it is not given here.

Method for N-MdmX: The protein−ligand interactions were characterized using a model ITC-200 isothermal titration microcalorimeter (Malvern, USA) at 25 °C. A typical experiment included the injection of 19 aliquots (2.0 μL each) containing an ~0.2 mM ligand solution into an ~10–20 μM protein solution in the ITC cell (volume of ∼200 μL). Titrations were performed with a stirring speed of 750 rpm and a spacing time of 120 s. A control experiment was run by injecting a ligand solution into buffer instead of a protein solution in the cell. Before data analysis, the control values were subtracted from the experimental data. The binding isotherms were integrated to give the enthalpy change (ΔH) plotted as a function of the molar ratio of the ligand. When necessary, prior to the integration procedures, the baseline was manually adjusted to minimize the background noise. The Origin 7.0-based software was used for data analysis with the one-set-of-binding-sites model. The disassociation constant of Kd was determined from the slope of the central linear part of the fractional saturation curve. The Gibbs free energy change (ΔG) and the entropy change (ΔS) were calculated on the basis of the following equations: ΔG =−RT ln Kd = ΔH − TΔS, where ΔH was derived from the original ΔH/molar ratio plots.

As for `O=C1CN(C(=O)N2C(c3ccc4c(c3)N(c3ccccc3)C(=O)CNC4=O)=N[C@@H](c3ccc(Cl)cc3)[C@H]2c2ccc(Cl)cc2)CCN1` [H203], in test [1], the “transcription of the p53 gene” value is “unaffected”. In addition, the “transcription of p21” value in test [1] (all three cell lines) was “increased in a dose-dependent manner”.

As usually defined, the Kd is the free concentration of one partner at which half of the binding sites on the other are occupied at equilibrium, for simple one-to-one binding. In the case of WKLLPEN [p53p^ΔF19], on N-MdmX, the dissociation constant (Kd) was determined as 20.1 ± 3.25 µM.
